We go through 1 molecule from patent US20220054494A1, “METHODS FOR TREATING BLADDER AND URETHRA DYSFUNCTION AND DISEASE” (University of Pittsburgh - Of the Commonwealth System of …, priority 2019, published 2022).

In data set [1] the test system is deoxycorticosterone/salt-induced hypertension. As to conditions: chronic oral treatment of rats; Jackson et al. 2016; cited from earlier work.
In data set [2] the test system is purines in urine. The data set is described as follows: Purines in urine by mass spectrometry. It is filed as in vivo, rat. As to conditions: aged rats, oral 8-AG 5 mg/kg/day, 6 weeks. As to the method:
Protocol 2: Purines in urine were measured by mass spectrometry using selected reaction monitoring. Urine samples were diluted 1 to 30 with water, and heavy isotope internal standards were added to each sample. Purines were separated by reversed-phase ultra-performance liquid chromatography (Waters UPLC BEH C18 column, 1.7 μm beads; 2.1×150 mm; Milford, Mass.) and quantified by selected reaction monitoring using a triple quadrupole mass spectrometer (TSQ Quantum-Ultra; THERMOFISHER SCIENTIFIC®, San Jose, Calif.) with a heated electrospray ionization source. The mobile phase was a linear gradient flow rate (300 μL/min) of 1% acetic acid in water (pH, 3; mobile phase A) and 100% methanol (mobile phase B) and was delivered with a Waters Acquity ultra-performance liquid chromatographic system. The gradient (A/B) settings were as follows: from 0 to 2 minutes, 99.6%/0.4%; from 2 to 3 minutes, to 98.0%/2.0%; from 3 to 4 minutes, to 85.0%/15.0%; and from 4 to 6.5 minutes, to 99.6%/0.4%. The instrument parameters were: sample tray temperature, 10° C.; column temperature, 50° C.; ion spray voltage, 4.0 kilovolts; ion transfer tube temperature, 350° C.; source vaporization temperature, 320° C.; Q2 CID gas, argon at 1.5 mTorr; sheath gas, nitrogen at 60 psi; auxillary gas, nitrogen at 35 psi; Q1/Q3 width, 0.7/0.7 units full-width half-maximum; scan width, 0.6 units; scan time, 0.01 seconds. […]
Purine Metabolome Measurement: Purines in urine were measured by mass spectrometry using selected reaction monitoring.(7,13) Urine samples were diluted 1 to 30 with water, and heavy isotope internal standards were added to each sample. Purines were separated by reversed-phase ultra-performance liquid chromatography (Waters UPLC BEH C18 column, 1.7 μm beads; 2.1×150 mm; Milford, Mass.) and quantified by selected reaction monitoring using a triple quadrupole mass spectrometer (TSQ Quantum-Ultra; THERMOFISHER SCIENTIFIC®, San Jose, Calif.) with a heated electrospray ionization source. […]

For data set [3], the system named is mitofusin 2 (MFN2). The experiment in a line: Western immunoblotting, mitofusin 2. In kind it is in vivo, rat. As to conditions: aged rats; oral 8-AG 5 mg/kg/day, 6 weeks. As to the method: Western immunoblotting: One half of each bladder preparation was homogenized using Lysing Matrix D in a FastPrep 24 instrument (MP Biomedicals, Solon, Ohio) in HBSS (5 mM KCl, 0.3 mM KH2PO4, 138 mM NaCl, 4 mM NaHO3, 0.3 mM Na2HCO3, 0.3 mM Na2HPO4, 5.6 mM glucose and 10 mM Hepes, pH 7.4) containing complete protease inhibitor cocktail (1 tablet/10 ml, ROCHE®, Indianapolis, Ind.)) and phosphatase inhibitor cocktail (SIGMA®, 1:100). After centrifugation (13000 rpm; 15 min at 4° C.), the membrane protein fraction was prepared by suspending the membrane pellets in lysis buffer containing 0.3 M NaCl, 50 mM Tris-HCl (pH 7.6) and 0.5% Triton X-100 and the same concentration of protease inhibitors as above. The suspensions were incubated on ice and centrifuged (13000 rpm; 15 min at 4° C.). The protein concentrations of the combined supernatants were determined using the PIERCE® BCA protein assay (THERMO SCIENTIFIC®, Rockford, Ill.). […] As a loading control, total protein per sample was determined using Bio-Rad® Stain Free SDS-PAGE gel technology. UV-activated protein fluorescence was imaged on a CHEMIDOC® MP (BIO-RAD®). […] The volume (intensity) of each protein species was determined and normalized to total protein using Image Lab software (BIO-RAD®).

“Also recorded” adds a separate entry of the source.

With `Nc1nc2[nH]c(N)nc2c(=O)[nH]1` [8-AG, 8-Aminoguanine], the “development of deoxycorticosterone/salt-induced hypertension” value in data set [1] is “attenuate”. In data set [2], the urinary hypoxanthine levels entry was “significantly reduced; also recorded: levels comparable to younger rats; also recorded: normalizes; also recorded: restored to younger levels”. In data set [2] (compared with young rats), the urinary guanosine levels entry is on record as “similar; also recorded: recovered”. The “urinary levels of 8-AG” value in data set [2] (undetectable in untreated aged rats) is reported as “restored to younger levels”. Further, in data set [3], the “mitofusin 2 (MFN2) in bladder mucosa” value was “reversed or restored to levels similar to the younger state; also recorded: restored changes similar to a younger state”.
